Tests used:
[1] = test system: NRTI-resistant HIV-1 strain 7396; test: microbe, parasite or virus in culture; type: cell-based; conditions: Human immunodeficiency virus 1, TZM-bl
[2] = test system: NRTI-resistant HIV-1 strain 7406; test: microbe, parasite or virus in culture; type: cell-based; conditions: Human immunodeficiency virus 1, TZM-bl
[3] = test system: NRTI-resistant HIV-1 strain 7407; test: microbe, parasite or virus in culture; type: cell-based; conditions: Human immunodeficiency virus 1, TZM-bl
[4] = test system: PI-resistant HIV-1 strain 11800; test: microbe, parasite or virus in culture; type: cell-based; conditions: Human immunodeficiency virus 1, TZM-bl
[5] = test system: PI-resistant HIV-1 strain 11803; test: microbe, parasite or virus in culture; type: cell-based; conditions: Human immunodeficiency virus 1, TZM-bl
Tat protein = Tat protein level in transfected HeLa cells, western blotting; conditions: HeLa cells transfected with pcDNA3-Flag-Tat86, 1.5 µM, 2 days
Method: (C) HeLa cells were transfected with pcDNA3-Flag-Tat86 plasmid. […] The levels of Tat protein were analyzed by western blotting using antibodies against Flag and α-tubulin.
The protein levels of the cell lysates were analyzed using western blotting as previously described ([12]). In brief, whole-cell lysates and samples fractionated in nuclear or cytoplasm were prepared with a 5× SDS sample buffer and subsequently subjected to SDS-polyacrylamide gel electrophoresis. Proteins were subsequently transferred onto polyvinylidene difluoride membranes (Millipore).

SMILES | EC50 [1] [µM] | EC50 [2] [µM] | EC50 [3] [µM] | EC50 [4] [µM] | EC50 [5] [µM] | decrease of expression of Tat protein (Tat protein)
Cc1[nH]c2ccc(-c3nnc(SCC(=O)N4CCCC4)o3)cc2c1C [Compound 13, 2-((5-(2,3-Dimethyl-1H-indol-5-yl)-1,3,4-oxadiazol-2-yl)thio)-1-(pyrrolidin-1-yl)ethan-1-one] | 0.15 ± 0.01 | 0.16 ± 0.02 | 0.19 ± 0.01 | 0.13 ± 0.1 | 0.16 ± 0.02 | did not exhibit a decrease
Cc1[nH]c2ccc(-c3nnc(SCC(=O)N4CCCCC4)o3)cc2c1C [Compound 9, 2-((5-(2,3-Dimethyl-1H-indol-5-yl)-1,3,4-oxadiazol-2-yl)thio)-1-(piperidin-1-yl)ethan-1-one] | 0.07 | 0.09 ± 0.01 | 0.07 ± 0.01 | 0.08 ± 0.01 | 0.07 ± 0.01 | did not exhibit a decrease

Source: publication PMC11459959, “Discovery of new acetamide derivatives of 5-indole-1,3,4-oxadiazol-2-thiol as inhibitors of HIV-1 Tat-mediated viral transcription” (Antimicrobial Agents and Chemotherapy, 2024)
